Measured values reported in the supplement of paper PMC10307832.

How the values were obtained:
Assay in all cases: relative viability (nuclei count vs DMSO), 5 days (fraction); higher = more cells survive
NCI-H23 = test system: NCI-H23
In short: (§1)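 Relative viability was taken as the ratio of nuclei in treated wells to nuclei in vehicle wells. Lung cancer cell lines in 1536-well plates received compounds by pin tool one day after seeding, either one drug alone or a fixed anchor-drug dose plus five library-drug doses (not always all listed) in √10 steps. Nuclei were counted on 4× images after 5 days of treatment, and values are medians of duplicate plates.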

NCI-H727 = test system: NCI-H727
In short: as §1

NCI-H1993 = test system: NCI-H1993
In short: as §1

NCI-H2126 = test system: NCI-H2126
In short: as §1

NCI-H647 = test system: NCI-H647
In short: as §1

NCI-H2023 = test system: NCI-H2023
In short: as §1

EMC-BAC-2 = test system: EMC-BAC-2
In short: as §1

NCI-H650 = test system: NCI-H650
In short: as §1

HARA = test system: HARA
In short: as §1

NCI-H2347 = test system: NCI-H2347
In short: as §1

HCC-44 = test system: HCC-44
In short: as §1

LCLC-103H = test system: LCLC-103H
In short: as §1

SMILES: Clc1ccc(Nc2nnc(Cc3ccncc3)c3ccccc23)cc1 [Vatalanib] + O=C(CCCCCCC(=O)Nc1ccccc1)NO [Vorinostat] (partner 1 µM)
- relative viability (NCI-H23; first compound 0.04 µM): 0.57
- relative viability (NCI-H23; first compound 0.1265 µM): 0.558
- relative viability (NCI-H23; first compound 0.4 µM): 0.77
- relative viability (NCI-H23; first compound 1.265 µM): 0.495
- relative viability (NCI-H23; first compound 4 µM): 0.546
- relative viability (NCI-H727; first compound 0.1265 µM): 1.28
- relative viability (NCI-H727; first compound 0.4 µM): 1.17
- relative viability (NCI-H727; first compound 1.265 µM): 1.1
- relative viability (NCI-H727; first compound 4 µM): 1.17
- relative viability (NCI-H1993; first compound 0.04 µM): 0.728
- relative viability (NCI-H1993; first compound 0.1265 µM): 0.795
- relative viability (NCI-H1993; first compound 0.4 µM): 0.806
- relative viability (NCI-H1993; first compound 1.265 µM): 0.709
- relative viability (NCI-H1993; first compound 4 µM): 0.726
- relative viability (NCI-H2126; first compound 0.04 µM): 0.704
- relative viability (NCI-H2126; first compound 0.1265 µM): 0.835
- relative viability (NCI-H2126; first compound 0.4 µM): 0.837
- relative viability (NCI-H2126; first compound 1.265 µM): 0.766
- relative viability (NCI-H2126; first compound 4 µM): 0.691
- relative viability (NCI-H647; first compound 0.04 µM): 0.658
- relative viability (NCI-H647; first compound 0.1265 µM): 0.685
- relative viability (NCI-H647; first compound 0.4 µM): 0.87
- relative viability (NCI-H647; first compound 1.265 µM): 0.641
- relative viability (NCI-H647; first compound 4 µM): 0.632
- relative viability (NCI-H2023; first compound 0.04 µM): 0.674
- relative viability (NCI-H2023; first compound 0.1265 µM): 0.688
- relative viability (NCI-H2023; first compound 0.4 µM): 0.716
- relative viability (NCI-H2023; first compound 1.265 µM): 0.5
- relative viability (NCI-H2023; first compound 4 µM): 0.628
- relative viability (EMC-BAC-2; first compound 0.04 µM): 0.448
- relative viability (EMC-BAC-2; first compound 0.1265 µM): 0.414
- relative viability (EMC-BAC-2; first compound 0.4 µM): 0.392
- relative viability (EMC-BAC-2; first compound 4 µM): 0.457
- relative viability (NCI-H650; first compound 0.04 µM): 0.397
- relative viability (NCI-H650; first compound 0.1265 µM): 0.496
- relative viability (NCI-H650; first compound 0.4 µM): 0.453
- relative viability (NCI-H650; first compound 1.265 µM): 0.414
- relative viability (NCI-H650; first compound 4 µM): 0.443
- relative viability (HARA; first compound 0.04 µM): 0.643
- relative viability (HARA; first compound 0.1265 µM): 0.51
- relative viability (HARA; first compound 0.4 µM): 0.479
- relative viability (HARA; first compound 1.265 µM): 0.566
- relative viability (HARA; first compound 4 µM): 0.481
- relative viability (NCI-H2347; first compound 0.04 µM): 0.473
- relative viability (NCI-H2347; first compound 0.1265 µM): 0.772
- relative viability (NCI-H2347; first compound 0.4 µM): 0.516
- relative viability (NCI-H2347; first compound 1.265 µM): 0.501
- relative viability (NCI-H2347; first compound 4 µM): 0.586
- relative viability (HCC-44; first compound 0.04 µM): 1.11
- relative viability (HCC-44; first compound 0.1265 µM): 1.08
- relative viability (HCC-44; first compound 0.4 µM): 1.09
- relative viability (HCC-44; first compound 1.265 µM): 1.04
- relative viability (HCC-44; first compound 4 µM): 1.07
- relative viability (LCLC-103H; first compound 0.04 µM): 0.776
- relative viability (LCLC-103H; first compound 0.1265 µM): 0.765
- relative viability (LCLC-103H; first compound 0.4 µM): 0.826
- relative viability (LCLC-103H; first compound 1.265 µM): 0.738
- relative viability (LCLC-103H; first compound 4 µM): 0.726
